What was measured:
[1] = test system: HAP1 MTAP-intact cell line; assay: SDMA in-cell western assay, HAP1 MTAP-intact; format: cell-based; details: Homo sapiens
Procedure, shortened: (§1)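 IC50 values come from an SDMA in-cell western run in isogenic HAP1 cells, either MTAP-null or expressing endogenous MTAP. The intact-to-deleted IC50 ratio is used to score MTAP selectivity.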

[2] = molecular target: T1, PRMT5 (Homo sapiens, UniProt O14744); assay: PRMT5 inhibition assay with no cofactor; format: biochemical; details: against PRMT5 with no cofactor; read-out: No Co-factor IC50
T1 construct: purchased Viva (custom protein)

[3] = molecular target: T1, PRMT5; assay: PRMT5 inhibition assay with MTA as cofactor; format: biochemical; details: for IC50: against PRMT5 with MTA as cofactor; for SAM/MTA Ratio: ratio of Ki in the presence of SAM to Ki in the presence of MTA, Ki=IC50/1.5 (SAM), Ki=IC50/13.5 (MTA)
Text: (§2) The Ki values can be calculated from the IC50 values as described in the Examples section. As detailed in the Examples section, for the assay performed in the presence of SAM, IC50=Ki×1.5 (Ki=IC50/1.5). For the assay performed in the presence of MTA, IC50=Ki×13.5 (Ki=IC50/13.5). Column 6 indicates the ratio between the Ki of compounds in the presence of SAM and the Ki of compounds in the presence of MTA

[4] = test system: HAP1 MTAP-deleted cell line; assay: SDMA in-cell western assay, HAP1 MTAP-deleted; format: cell-based; details: for IC50: Homo sapiens, HAP1 MTAP-deleted (MTAP-null) cell line; for MTAP Intact/Deleted Ratio: IC50 ratio HAP1 MTAP-intact / HAP1 MTAP-deleted, >=3 fold considered MTAP-selective
Procedure, shortened: as §1

[5] = molecular target: T1, PRMT5; assay: PRMT5 inhibition assay with SAM as cofactor; format: biochemical; details: against PRMT5 in the presence of SAM as cofactor
Text: as §2

T1 sequence (O14744 whole entry): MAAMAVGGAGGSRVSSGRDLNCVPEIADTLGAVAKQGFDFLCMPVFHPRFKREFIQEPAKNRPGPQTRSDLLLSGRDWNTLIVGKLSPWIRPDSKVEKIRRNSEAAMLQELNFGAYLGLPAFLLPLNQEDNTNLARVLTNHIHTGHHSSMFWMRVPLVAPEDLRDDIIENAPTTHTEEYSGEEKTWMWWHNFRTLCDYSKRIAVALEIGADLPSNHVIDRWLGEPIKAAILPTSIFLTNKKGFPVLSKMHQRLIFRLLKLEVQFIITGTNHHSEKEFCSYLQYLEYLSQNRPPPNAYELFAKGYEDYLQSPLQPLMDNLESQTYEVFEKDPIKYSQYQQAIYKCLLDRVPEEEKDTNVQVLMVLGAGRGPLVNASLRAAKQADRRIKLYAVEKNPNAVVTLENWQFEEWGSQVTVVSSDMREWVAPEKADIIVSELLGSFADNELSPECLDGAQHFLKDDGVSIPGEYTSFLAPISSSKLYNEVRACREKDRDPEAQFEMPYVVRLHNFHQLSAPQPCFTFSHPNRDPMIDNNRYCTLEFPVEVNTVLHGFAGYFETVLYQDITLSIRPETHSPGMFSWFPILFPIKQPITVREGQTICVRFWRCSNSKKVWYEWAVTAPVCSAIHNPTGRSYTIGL
T1 sequence (Q9BQA1 whole entry partner): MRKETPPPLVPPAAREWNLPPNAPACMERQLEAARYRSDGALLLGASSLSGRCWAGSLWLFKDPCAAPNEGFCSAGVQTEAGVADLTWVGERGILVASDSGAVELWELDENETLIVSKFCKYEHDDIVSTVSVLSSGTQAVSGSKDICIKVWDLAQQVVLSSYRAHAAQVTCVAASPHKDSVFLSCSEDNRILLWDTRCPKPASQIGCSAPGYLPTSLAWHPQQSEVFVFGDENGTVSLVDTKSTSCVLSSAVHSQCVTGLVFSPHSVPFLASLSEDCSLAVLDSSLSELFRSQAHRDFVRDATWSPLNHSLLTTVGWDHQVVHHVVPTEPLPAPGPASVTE

SMILES | IC50 [1] [nM] | IC50 [2] [nM] | IC50 [3] [nM] | IC50 [4] [nM] | IC50 [5] [nM] | SAM/MTA Ratio [3] | MTAP Intact/Deleted Ratio [4]
Cn1nccc1COc1ccc2c(c1)CN[C@H]([C@H](O)CNC(=O)c1ccc(C(=O)N3CCOCC3)cc1)C2 [Compound 2, N—((R)-2-hydroxy-2-((S)-7-((1-methyl-1H-pyrazol-5-yl)methoxy)-1,2,3,4-tetrahydroisoquinolin-3-yl)ethyl)-4-(morpholine-4-carbonyl)benzamide] | ≥ 10000 | 500 to 5000 | 50 to 500 | ≥ 10000 | 50 to 500 | A (a Ki ratio greater than or equal to 10 fold between the Ki in the presence of SAM and the Ki in the presence of MTA) | C* (an IC50 ratio of less than 3 fold between the IC50 in the HAP1 MTAP-intact cell line and the HAP1 MTAP-deleted cell line)
CC(=O)N1CCN(c2cc(C(=O)NC[C@@H](O)[C@@H]3Cc4ccc(OCc5ocnc5C)cc4CN3)cc(NC3CCC3)n2)CC1 [Compound 29, 2-(4-acetylpiperazin-1-yl)-6-(cyclobutylamino)-N—((R)-2-hydroxy-2-((S)-7-((4-methyloxazol-5-yl)methoxy)-1,2,3,4-tetrahydroisoquinolin-3-yl)ethyl)isonicotinamide] | 1000 to 10000 | 50 to 500 | < 50 | < 1000 | 50 to 500 | A (a Ki ratio greater than or equal to 10 fold between the Ki in the presence of SAM and the Ki in the presence of MTA) | A* (an IC50 ratio greater than or equal to 10 fold between the IC50 in the HAP1 MTAP-intact cell line and the HAP1 MTAP-deleted cell line)
Cc1ncoc1COc1ccc2c(c1)CN[C@H]([C@H](O)CNC(=O)c1cc(NC3CCC3)ncc1F)C2 [Compound 27, 2-(cyclobutylamino)-5-fluoro-N—((R)-2-hydroxy-2-((S)-7-((4-methyloxazol-5-yl)methoxy)-1,2,3,4-tetrahydroisoquinolin-3-yl)ethyl)isonicotinamide] | 1000 to 10000 | 500 to 5000 | 50 to 500 | < 1000 | 50 to 500 | A (a Ki ratio greater than or equal to 10 fold between the Ki in the presence of SAM and the Ki in the presence of MTA) | A* (an IC50 ratio greater than or equal to 10 fold between the IC50 in the HAP1 MTAP-intact cell line and the HAP1 MTAP-deleted cell line)

Continued, in another order:

IC50 [1] [nM] | IC50 [2] [nM] | IC50 [3] [nM] | IC50 [4] [nM] | IC50 [5] [nM] | SMILES | SAM/MTA Ratio [3] | MTAP Intact/Deleted Ratio [4]
< 1000 | 50 to 500 | < 50 | < 1000 | 50 to 500 | Cc1ncoc1COc1ccc2c(c1)CN[C@H]([C@H](O)CNC(=O)c1cc(NC3CCC3)nc(N3CCN(C)CC3)c1)C2 [Compound 52, 2-(cyclobutylamino)-N-[(2R)-2-hydroxy-2-[(3S)-7-[(4-methyloxazol-5-yl)methoxy]-1,2,3,4-tetrahydroisoquinolin-3-yl]ethyl]-6-(4-methylpiperazin-1-yl)pyridine-4-carboxamide] | A (a Ki ratio greater than or equal to 10 fold between the Ki in the presence of SAM and the Ki in the presence of MTA) | A* (an IC50 ratio greater than or equal to 10 fold between the IC50 in the HAP1 MTAP-intact cell line and the HAP1 MTAP-deleted cell line)
1000 to 10000 | 50 to 500 | < 50 | < 1000 | 50 to 500 | CC(=O)N1CC(Nc2cc(C(=O)NC[C@@H](O)[C@@H]3Cc4ccc(OCc5ocnc5C)cc4CN3)nc(N3CC4CCC(C4)C3)n2)C1 [Compound 56, 6-[(1-acetylazetidin-3-yl)amino]-2-(3-azabicyclo[3.2.1]octan-3-yl)-N-[(2R)-2-hydroxy-2-[(3S)-7-[(4-methyloxazol-5-yl)methoxy]-1,2,3,4-tetrahydroisoquinolin-3-yl]ethyl]pyrimidine-4-carboxamide] | A (a Ki ratio greater than or equal to 10 fold between the Ki in the presence of SAM and the Ki in the presence of MTA) | A* (an IC50 ratio greater than or equal to 10 fold between the IC50 in the HAP1 MTAP-intact cell line and the HAP1 MTAP-deleted cell line)
